From patent US20140170096A1, “SUNSCREEN COMPOSITIONS” (priority 2011, published 2014)

What was measured:
[1] = tested on: viruses in water surrounding coral nubbins; experiment: Viral abundance and viral enrichment in seawater surrounding coral nubbins (microcosm incubation); settings: for Total viral abundances (TVN): seawater surrounding Acropora sp. nubbins, compound concentration per Table 2; for Viral enrichment factor (VEF): ratio of viral abundances, end vs start of incubation
Procedure: (§1) In situ tests were performed on nubbins (i.e., small branches of about 3-6 cm) of the stony coral Acropora sp. The nubbins were incubated in microcosms in presence of known concentrations of various ingredients potentially to be included in the composition of the eco-compatible sunscreen cream. In particular, coral nubbins (including more than 3000 polyps each) were collected by scuba divers from the same colony, located at a depth of about 3 m on the edge of the reef slope. Sampling of nubbins was performed by means of forceps. The nubbins were washed with seawater filtered onto 0.02-μm filters to eliminate viruses and prokaryotes. Each microcosm was prepared with a replicate set of nubbins (n=3) immersed in sterile polyethylene bags (Whirl-pack, Nasco, Fort Atkinson, Wis., USA) filled with 2 L filtered seawater. A total of 27 microcosms were prepared, in order to test 20 ingredients with the respective positive and negative controls. The microcosms were incubated at in situ temperature and light conditions for 72 hours.
(§2) After subsampling, sea water was transferred into sterile test tubes without use of fixatives and stored at −20° C. until laboratory analysis for quantification of viral and prokaryotic abundance. Once in laboratory, the water samples were immediately processed. Briefly, 200 uL sea water were diluted 1:10 with prefiltered MilliQ water, through 0.02-μm pore filters (Anodisc filter; 25-mm diameter, Al2O3; Whatman) and stained with 20 μL SYBR Green (stock solution diluted 1:20; Invitrogen, Carlsbad, Calif., USA). […] Slides were stored at −20° C. until microscopy analysis. Virus and prokaryote counts were obtained by epifluorescence microscopy (magnification, ×1000; Zeiss Axioplan) by examining at least 10 optical fields, that is, at least 200 cells or viruses per replicate. Viral (and prokaryotic) enrichment was calculated as ratio between virus (and prokaryote) abundances and virus (and prokaryote) abundance at the […] of the experiment.

[2] = tested on: prokaryotes in water surrounding coral nubbins; experiment: Prokaryotic (bacterial) abundance and enrichment in seawater surrounding coral nubbins (microcosm incubation); settings: seawater surrounding Acropora sp. nubbins
Procedure: as §1, §2

[3] = tested on: symbiotic zooxanthellae released from coral nubbins; experiment: Zooxanthellae counts: zooxanthellae released in water surrounding coral nubbins; assay type: in vivo, Acropora sp.; settings: for Healthy zooxanthellae released / Pale zooxanthellae released / Total zooxanthellae released / Transparent (i.e., dead) zooxanthellae released: end of incubation (72 h); for Percentage of healthy zooxanthellae released / Percentage of pale zooxanthellae released / Percentage of transparent zooxanthellae released: of total released, end of incubation
Procedure: as §1
Subsamples (50 mL) of seawater surrounding coral nubbins were collected at the start of the experiment (T0) and after 6, 12, 24, 36, 48 and 72 hours of incubation. The subsamples were fixed in 3% glutaraldehyde and then about 6.0 ml of each replicate was filtered through 2.0-μm polycarbonate filters. Filters were mounted on glass slides and zooxanthellae counted under epifluorescence microscopy (Zeiss Axioplan, Carl Zeiss Inc., Jena, Germany; ×400 and ×1000) using standard and UV light.

[4] = tested on: stony coral Acropora sp. nubbins; experiment: Quantification of coral bleaching by colorimetric (CMYK) analysis of digital photographs; assay type: in vivo; settings: Acropora sp. (stony coral), in vivo, 72 h
Procedure: as §1
Photographs were taken under identical illumination with a Canon PowerShot A620 digital camera (Canon Inc., Tokyo, Japan) with a scale meter on the background. The photos were successively analyzed with a photo-editing software (Adobe Photoshop CS2) for color composition [cyan, magenta, yellow, black (CMYK)]. Levels of bleaching were measured as the difference between the corals' color at the beginning of the experiment and after treatments. Variations in the percentage of the different color components (CMYK) were analyzed with one-way analysis of variance (ANOVA). To rank the bleaching effect due to the compounds tested, a Bray-Curtis similarity matrix was prepared and a multidimensional scaling analysis of the shifts in CMYK color composition of treated corals was performed using Primer 5.0 software (Primer-E Ltd., Plymouth, UK). Bleaching rates were measured as the dissimilarity percentage in CMYK color composition between treated and control corals using the SIMPER tool of Primer 5.0 software (Primer-E Ltd).

coral reefs = experiment: Summary of eco-compatibility of tested products with coral reefs; parameters: species or system Acropora sp.
Procedure: In order to select the most eco-compatible products for each group of compounds (i.e., base cream, fragrance, antioxidants and filters) the following criteria were selected:
1. coral bleaching level; 2. degree of release of symbiotic zooxanthellae; 3. zooxanthellae health conditions; 4. viral enrichment in the incubation medium with respect to controls.

`CCCCCCCCCCCCCCCC(=O)OC/C=C(C)/C=C/C=C(C)/C=C/C1=C(C)CCCC1(C)C` [System D19, retinyl palmitate] was tested, and the “Total viral abundances (TVN)” value ([1]; incubation 0 (start)) was 1.03E+05 viruses ml^−1, the “Total viral abundances (TVN)” value ([1]; incubation 12 h) was 1.98E+06 viruses ml^−1 and the “Viral enrichment factor (VEF)” value [1] was 18.92. For the same compound, the “Bacterial abundance (total bacterial number, TBN)” value (“Bacterial abundance” for short) ([2]; incubation 0 (start)) was 3.62E+04, the “Bacterial abundance” value ([2]; incubation 12 h) was 1.54E+06 and the Healthy zooxanthellae released [3] was 1.07E+03 cells ml^−1. The Pale zooxanthellae released [3] was 5.30E+03 cells ml^−1, the Total zooxanthellae released [3] was 1.23E+04 cells ml^−1 and the “Transparent (i.e., dead) zooxanthellae released” value [3] was 5.97E+03 cells ml^−1. The “Percentage of healthy zooxanthellae released” value [3] was 9%, the “Percentage of pale zooxanthellae released” value [3] was 43% and the “Percentage of transparent zooxanthellae released” value [3] was 48%. For the same compound, the “Number of color channels (of 4, CMYK) significantly altered” value [4] was 1 and the Eco-compatibility (coral reefs) was “Compatible”.

For `CC1=C(/C=C/C(C)=C/C=C/C(C)=C/CO)C(C)(C)CCC1` [System D20, Retinol], the “Total viral abundances (TVN)” value ([1]; incubation 0 (start)) was 2.47E+05 viruses ml^−1, the “Total viral abundances (TVN)” value ([1]; incubation 12 h) was 1.97E+06 viruses ml^−1 and the “Viral enrichment factor (VEF)” value [1] was 8.09. For the same compound, the “Bacterial abundance” value ([2]; incubation 0 (start)) was 3.62E+04, the “Bacterial abundance” value ([2]; incubation 12 h) was 1.71E+06 and the Healthy zooxanthellae released [3] was 6.04E+02 cells ml^−1. The Pale zooxanthellae released [3] was 7.18E+03 cells ml^−1, the Total zooxanthellae released [3] was 1.46E+04 cells ml^−1 and the “Transparent (i.e., dead) zooxanthellae released” value [3] was 6.84E+03 cells ml^−1. The “Percentage of healthy zooxanthellae released” value [3] was 4%, the “Percentage of pale zooxanthellae released” value [3] was 49% and the “Percentage of transparent zooxanthellae released” value [3] was 47%. For the same compound, the “Number of color channels (of 4, CMYK) significantly altered” value [4] was 1 and the Eco-compatibility (coral reefs) was “Compatible”.
